Reference: paper PMC9238271, “The quorum sensing peptide EntF* promotes colorectal cancer metastasis in mice: a new factor in the host-microbiome interaction” (BMC Biology, 2022)

Assay: EntF* in serum of untreated mice, RP-UPLC-TQ-MS (LC1-MS1)
Type: in vivo, C57BL/6 mice
Conditions: for EntF* concentration (pM) LC1-MS1: mouse serum, LOQ = 100 pM, below: set at 0
Description: After a 30 min incubation on ice, blood was centrifuged at 1000g for 10 min at room temperature. The supernatant (serum) was then transferred to fresh tubes and stored at − 35 °C until use.
Fifty microliters of serum were mixed with 150 μL 0.5% formic acid in acetonitrile. After sonication for 5 min, samples were vortexed for 5 s, then heated for 30 s at 100 °C. The solution was vortexed and centrifuged for 20 min at 20,000g at 4 °C. The supernatant was purified using solid phase extraction (SPE) on HyperSep C18 plates (Thermo Fisher Scientific, Belgium), previously conditioned with acetonitrile and equilibrated with 75% acetonitrile in water, containing 0.375% formic acid. After loading 150 μL of each sample, 120 μL eluent were collected and organic solvents evaporated using nitrogen (1 L/min) for 5 min. The resulting samples were further diluted with 30 μL of BSA-based anti-adsorption solution, and analyzed by LC-MS.
EntF* was detected and quantified on a Waters Acquity® UPLC H-class system, connected to a Waters Xevo™ TQ-S triple quadrupole mass spectrometer with electrospray ionization (operated in positive ionization mode). Autosampler tray and column oven were kept at 10 ± 5 °C and 60 ± 5 °C, respectively. Chromatographic separation was achieved on a Waters Acquity® UPLC BEH Peptide C18 column (300 Å, 1.7 μm, 2.1 mm × 100 mm). The mobile phases consisted of 93/2/5 water/acetonitrile/DMSO (V/V/V) containing 0.1% formic acid (mobile phase A) and 2/93/5 water/acetonitrile/DMSO (V/V/V) containing 0.1% formic acid (mobile phase B), and the flow rate was set to 0.5 mL/min. A 10-μL aliquot from each sample was injected. The gradient program started with 80% of mobile phase A for 1 min, followed by a linear gradient to 40% of mobile phase A for 3.5 min. Gradient was then changed to 14.2% mobile phase A at 5 min, followed by a 1 min equilibration, before starting conditions were applied. EntF* retention time was between 4.25 and 4.45 min.
An optimized capillary voltage of 3.00 kV, a cone voltage of 20.00 V, and a source offset of 50.0 V were used. Acquisition was done in the MRM mode. The selected precursor ion for EntF* was m/z 865.7 with two selected product ions at m/z 202.08 (36 eV, b2 fragment) as quantifier and m/z 315.17 (31 eV, b3 fragment) as qualifier.
A sample was considered positive for the presence of EntF* when the following criteria were met: correct retention time, quantifier/qualifier peak area ratio between 2.0 and 4.0, both quantifier and qualifier peaks with a signal-to-noise ratio > 3.0, and a peptide concentration > 100 pM.

With `CC(C)C[C@@H]1NC(=O)[C@H](CO)NC(=O)[C@H](Cc2ccccc2)NC(=O)[C@H](C(C)C)NC(=O)[C@@H](NC(=O)[C@H](CCC(=O)O)NC(=O)[C@@H](NC(=O)[C@H](CC(C)C)NC(=O)[C@H](CC(N)=O)NC(=O)[C@@H](N)CO)C(C)C)CSSC[C@@H](C(=O)N[C@@H](CC(N)=O)C(=O)O)NC(=O)[C@H](CCCCN)NC(=O)[C@H](CCCCN)NC(=O)[C@H](Cc2ccccc2)NC1=O` (single isomer, unassigned) [EntF*] as the compound, how does the “in vivo exposure, average” value (All mice average (<LoD => 0)) read?
Its value is 0.019 nM.

What about the “in vivo exposure, Exposure” value (All mice average (<LoD => 0), time 1440 min) of the same compound?
The value was 27.5 nM·min.

What about the “Concentration (pM), average” value (Natural in vivo exposure, average of all samples, < LOD: set at 0 pM) of the same compound?
Its value is 19.1243 pM.

And the “Concentration (pM)” value (Natural in vivo exposure, sample 10809_069_205)?
The value was 107.331 pM.

What about the “Concentration (pM)” value (Natural in vivo exposure, sample 10809_069_269) of the same compound?
Its value is 431.362 pM.

And the “Concentration (pM)” value (Natural in vivo exposure, sample 10809_069_276)?
Its value is 567.385 pM.

What about the “Concentration (pM)” value (Natural in vivo exposure, sample 10809_069_296) of the same compound?
Its value is 136.998 pM.

What about the “EntF* concentration in mouse serum, Average (pM), All” value (all samples (n=35), samples < LOQ counted as zero) of the same compound?
The value was 328.6 pM.

And the “amount of EntF* detected in the serum of positive mice” value (endogenous level, six of 35 untreated C57BL/6 mice, LOQ 100 pM, LC1-MS1)?
Its value is “above 100 pM”.

And the “EntF* concentration (pM) LC1-MS1” value (sample 20181011S4)?
The value was 389 pM.

And the “EntF* concentration (pM) LC1-MS1” value (sample 20181011S7)?
The value was 2146 pM.

And the “EntF* concentration (pM) LC1-MS1” value (sample 20181011S9)?
Its value is 3127 pM.

What about the “EntF* concentration (pM) LC1-MS1” value (sample 20181011S12) of the same compound?
The value was 2489 pM.

And the “EntF* concentration (pM) LC1-MS1” value (sample 20181011S16)?
The value was 3148 pM.

And the “EntF* concentration (pM) LC1-MS1” value (sample 20181011S18)?
Its value is 200 pM.
